Blank lines part the entries; values can stand above or below the molecule they belong to. Active and inactive are the calls of the source. The rule behind the calls is not given here.
Experiments:
[1] = biological target: T1, Transcriptional activator protein LasR (Pseudomonas aeruginosa (strain ATCC 15692 / PAO1 / 1C / PRS 101 / LMG12228)) (UniProt P25084); assay: Inhibition of LasR in Pseudomonas aeruginosa PA14 assessed as reduction in biofilm formation at 1 to 1000 uM incubated at 37 degC for 24 hrs by crystal violet staining based static biofilm formation assay
T1 sequence (whole entry): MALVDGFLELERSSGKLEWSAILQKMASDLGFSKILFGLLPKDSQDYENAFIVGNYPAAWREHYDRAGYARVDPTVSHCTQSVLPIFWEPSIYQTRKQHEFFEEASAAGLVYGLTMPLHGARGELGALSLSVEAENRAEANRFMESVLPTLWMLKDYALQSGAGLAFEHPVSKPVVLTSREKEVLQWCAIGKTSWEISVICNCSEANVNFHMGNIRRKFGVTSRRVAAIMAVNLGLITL

[2] = biological target: T1, Transcriptional activator protein LasR (Pseudomonas aeruginosa (strain ATCC 15692 / PAO1 / 1C / PRS 101 / LMG12228)); assay: Inhibition of LasR in Pseudomonas aeruginosa PA14 assessed as reduction in biofilm formation at 0.1 to 10 uM incubated at 37 degC for 24 hrs by crystal violet staining based static biofilm formation assay
[3] = biological target: T1, Transcriptional activator protein LasR (Pseudomonas aeruginosa (strain ATCC 15692 / PAO1 / 1C / PRS 101 / LMG12228)); assay: Inhibition of LasR in Pseudomonas aeruginosa PA14 assessed as reduction in biofilm formation incubated at 37 degC for 24 hrs by crystal violet staining based static biofilm formation assay
Pseudomonas aeruginosa [4] = assay: Toxicity against Pseudomonas aeruginosa PA14 assessed as effect on bacterial growth at 1 to 10 uM incubated at 37 degC for 13 hrs
[5] = biological target: T1, Transcriptional activator protein LasR (Pseudomonas aeruginosa (strain ATCC 15692 / PAO1 / 1C / PRS 101 / LMG12228)); assay: Inhibition of LasR in Pseudomonas aeruginosa PA14 assessed as reduction in lasA gene expression at 10 uM by RT-qPCR method
[6] = biological target: T1, Transcriptional activator protein LasR (Pseudomonas aeruginosa (strain ATCC 15692 / PAO1 / 1C / PRS 101 / LMG12228)); assay: Inhibition of LasR in Pseudomonas aeruginosa PA14 assessed as reduction in lasB gene expression at 10 uM by RT-qPCR method
[7] = biological target: T1, Transcriptional activator protein LasR (Pseudomonas aeruginosa (strain ATCC 15692 / PAO1 / 1C / PRS 101 / LMG12228)); assay: Inhibition of LasR in Pseudomonas aeruginosa PA14 assessed as reduction in lasI gene expression at 10 uM by RT-qPCR method
[8] = biological target: T1, Transcriptional activator protein LasR (Pseudomonas aeruginosa (strain ATCC 15692 / PAO1 / 1C / PRS 101 / LMG12228)); assay: Inhibition of LasR in Pseudomonas aeruginosa PA14 assessed as reduction in lasR gene expression at 10 uM by RT-qPCR method
[9] = biological target: T1, Transcriptional activator protein LasR (Pseudomonas aeruginosa (strain ATCC 15692 / PAO1 / 1C / PRS 101 / LMG12228)); assay: Inhibition of LasR in Pseudomonas aeruginosa PA14 assessed as reduction in rhlA gene expression at 10 uM by RT-qPCR method
[10] = biological target: T1, Transcriptional activator protein LasR (Pseudomonas aeruginosa (strain ATCC 15692 / PAO1 / 1C / PRS 101 / LMG12228)); assay: Inhibition of LasR in Pseudomonas aeruginosa PA14 assessed as reduction in rhlB gene expression at 10 uM by RT-qPCR method
[11] = biological target: T1, Transcriptional activator protein LasR (Pseudomonas aeruginosa (strain ATCC 15692 / PAO1 / 1C / PRS 101 / LMG12228)); assay: Inhibition of LasR in Pseudomonas aeruginosa PA14 assessed as reduction in rhlR gene expression at 10 uM by RT-qPCR method
[12] = biological target: T1, Transcriptional activator protein LasR (Pseudomonas aeruginosa (strain ATCC 15692 / PAO1 / 1C / PRS 101 / LMG12228)); assay: Inhibition of LasR in Pseudomonas aeruginosa PA14 assessed as reduction in rhlI gene expression at 10 uM by RT-qPCR method
[13] = biological target: T1, Transcriptional activator protein LasR (Pseudomonas aeruginosa (strain ATCC 15692 / PAO1 / 1C / PRS 101 / LMG12228)); assay: Inhibition of LasR in Pseudomonas aeruginosa PA14 assessed as reduction in mvfR gene expression at 10 uM by RT-qPCR method
[14] = biological target: T1, Transcriptional activator protein LasR (Pseudomonas aeruginosa (strain ATCC 15692 / PAO1 / 1C / PRS 101 / LMG12228)); assay: Inhibition of LasR in Pseudomonas aeruginosa PA14 assessed as reduction in pqsC gene expression at 10 uM by RT-qPCR method
[15] = biological target: T1, Transcriptional activator protein LasR (Pseudomonas aeruginosa (strain ATCC 15692 / PAO1 / 1C / PRS 101 / LMG12228)); assay: Inhibition of LasR in Pseudomonas aeruginosa PA14 assessed as reduction in pqsD gene expression at 10 uM by RT-qPCR method
[16] = biological target: T1, Transcriptional activator protein LasR (Pseudomonas aeruginosa (strain ATCC 15692 / PAO1 / 1C / PRS 101 / LMG12228)); assay: Inhibition of LasR in Pseudomonas aeruginosa PA14 assessed as reduction in phnB gene expression at 10 uM by RT-qPCR method
[17] = biological target: T1, Transcriptional activator protein LasR (Pseudomonas aeruginosa (strain ATCC 15692 / PAO1 / 1C / PRS 101 / LMG12228)); assay: Inhibition of LasR in Pseudomonas aeruginosa PA14 assessed as reduction in pqsH gene expression at 10 uM by RT-qPCR method
[18] = biological target: T1, Transcriptional activator protein LasR (Pseudomonas aeruginosa (strain ATCC 15692 / PAO1 / 1C / PRS 101 / LMG12228)); assay: Inhibition of LasR in Pseudomonas aeruginosa PA14 assessed as reduction in phzC1 gene expression at 10 uM by RT-qPCR method
[19] = biological target: T1, Transcriptional activator protein LasR (Pseudomonas aeruginosa (strain ATCC 15692 / PAO1 / 1C / PRS 101 / LMG12228)); assay: Inhibition of LasR in Pseudomonas aeruginosa PA14 assessed as reduction in phzE1 gene expression at 10 uM by RT-qPCR method
Pseudomonas aeruginosa [20] = assay: Toxicity against Pseudomonas aeruginosa PA14 assessed as effect on house keeping proC gene expression at 10 uM by RT-qPCR method
[21] = biological target: T1, Transcriptional activator protein LasR (Pseudomonas aeruginosa (strain ATCC 15692 / PAO1 / 1C / PRS 101 / LMG12228)); assay: Inhibition of Pseudomonas aeruginosa LasR expressed in Pseudomonas aeruginosa PA14 over-expressing pUCPLasR assessed as reduction in biofilm formation at 0.1 to 100 uM incubated at 37 degC for 24 hrs by crystal violet staining based static biofilm formation assay

inhibition [1]: 13%
Structure (SMILES): O=C1C=C(Br)/C(=C/Br)O1

Structure (SMILES): CCCCCCCCCCCCOc1cc(C)oc(=O)c1
inhibition [1]: 11% | inhibition [2]: 6% | inhibition [3]: Dose-dependent effect | Activity (Pseudomonas aeruginosa [4]): Non-toxic | inhibition [5]: Active | inhibition [6]: Active | inhibition [7]: Active | inhibition [8]: Active | inhibition [9]: Active | inhibition [10]: Active | inhibition [11]: Active | inhibition [12]: Active | inhibition [13]: Active | inhibition [14]: Active | inhibition [15]: Active | inhibition [16]: Active | inhibition [17]: Active | inhibition [18]: Active | inhibition [19]: Active | Activity (Pseudomonas aeruginosa [20]): Non-toxic | inhibition [21]: Active

inhibition [1]: 6%
Structure (SMILES): CCCCCCCCCCCCCOc1cc(C)oc(=O)c1

inhibition [1]: 6%
Structure (SMILES): CCCCCCCCCCCCCCOc1cc(C)oc(=O)c1

Reference: ChEMBL document CHEMBL3596092, “Design, synthesis and biological evaluation of 4-(alkyloxy)-6-methyl-2H-pyran-2-one derivatives as quorum sensing inhibitors” (Bioorg Med Chem Lett, 2015)
